Values quoted from earlier work as cited in US7939102B2, “Controlled release formulation of lamotrigine” (Torrent Pharmaceuticals Ltd., priority 2003, dated 2011).

Legend:
seizures = details: acute and chronic studies in humans (Betts et al, 1991)
[1] = not given; remark: listed apart in the source

Structure (SMILES): Nc1nnc(-c2cccc(Cl)c2Cl)c(N)n1 [lamotrigine, 3,5-diamino-6(2,3-dichlorophenyl)-1,2,4-triazine]
- plasma levels at which side effects were reported (Binnie et al., 1987, side effects only in patients above this level): above 3 μg/ml
- incidence of side effects (dizziness, ataxia, diplopia, somnolence, headache, asthenia) (Ramsay RE, 1991): around 10%
- patients reporting headache and ataxia (first 18 weeks of treatment, at >10 μg/ml): 100%
- patients reporting nausea and vomiting (first 18 weeks of treatment, mean concentration of 6.00 to 7.99 μg/ml): 16.7%
- discontinuation of therapy due to rash (placebo-controlled trials): 1%
- patients with rash (placebo-controlled trials): 10%
- patients removed from clinical trials because of adverse experiences (rash, nausea/vomiting, CNS-related events): 8.6%
- lamotrigine levels effective in controlling seizures (seizures): 1 to 3 µg/mL
- dose dependence of plasma concentrations ([1]; Ramsay RE, 1991): vary linearly with the dose
- increase of plasma concentrations with concomitant sodium valproate ([1]; valproate reduces hepatic clearance, for a given dose): approximately two fold
